# Several values for one entry are separate records, joined by “and”; a condition that tells them apart may be missing. Identical values can stand only once. Activity calls are given as the source filed them. The rule behind the calls is not given here.
# Tested on: PPC-1 cells, TRAIL-induced apoptosis potentiation
# Assay: TRAIL sensitization of PPC-1 cells, potency – analog series, SAR follow-up (AID 1752)
row,SMILES,IC50
1,CCSc1nc(-c2ccccc2)cc(=O)[nH]1,> 10 µM (inactive)
2,COc1cc(-c2ccccc2)[nH]c(=S)n1,> 10 µM (inactive)
3,CSc1nc(-c2ccccc2)nc(-c2ccccc2OC(C)=O)n1,> 10 µM (inactive)
4,CSc1nc(-c2ccccc2)nc(-c2ccccc2)n1,> 10 µM (inactive)
5,CSc1nc(-c2ccccc2)nc(C(C)C)n1,> 10 µM (inactive)
6,CCSc1cc(N2CCCC2)nc(-c2ccc(Cl)cc2)n1,> 10 µM (inactive)
7,CSc1nc(-c2ccc(C)cc2)nc(C(Cl)Cl)n1,0.372 µM and 0.602 µM
8,CC(Sc1nc(-c2ccccc2)cc(C(F)(F)F)n1)C(=O)N1CCCC1 (stereo not drawn),> 10 µM (inactive)

# Reference: PubChem BioAssay AID1752 (Sanford-Burnham Center for Chemical Genomics, 2009)
